Test results taken from the supplement of paper PMC12420376.

Assays:
[1] = tested on: KURAMOCHI; experiment: drug sensitivity score (DSS2) on cancer cell count; higher = more sensitive; extreme values may be limits of the assay; conditions: 72 h
Summary of the method: (§1)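 Cancer cell counts came from 10× images (4 fields) of fixed cells immunostained for CK8/18 with Hoechst. The ovarian cancer cells had been grown alone or in 1:1 direct co-culture with lung or skin fibroblasts on 384-well plates pre-spotted acoustically with 528 approved and investigational compounds at 5 concentrations, then treated for 72 h. Breeze was used to derive a drug sensitivity score from logistic fits of the data.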

[2] = tested on: OVCAR8; experiment: as above; conditions: 72 h
Summary of the method: as §1

[3] = co-cultured fibroblast: BJHTERT
[4] = co-cultured fibroblast: none (monoculture)

SMILES | drug sensitivity score [1, 3] [DSS] | drug sensitivity score ([1]; co-cultured fibroblast: WI38) [DSS] | drug sensitivity score [1, 4] [DSS] | drug sensitivity score [2, 3] [DSS] | drug sensitivity score ([2]; co-cultured fibroblast: WI38) [DSS] | drug sensitivity score [2, 4] [DSS]
O=c1sn(-c2cccc3ccccc23)c(=O)n1Cc1ccccc1 [Tideglusib] | 0 | 0 | 0 | 0.4 | 1.5 | 0
Cn1cncc1[C@@](N)(c1ccc(Cl)cc1)c1ccc2c(c1)c(-c1cccc(Cl)c1)cc(=O)n2C [Tipifarnib] | 14.9 | 18.3 | 12.9 | 5.5 | 2.5 | 12.5
CC#CC(=O)N1CC[C@@H](n2c(=O)n(-c3ccc(Oc4ccccc4)cc3)c3c(N)ncnc32)C1 [Tirabrutinib] | 1.4 | 0 | 0 | 0 | 0 | 0
O=C1NC(=O)[C@@H](c2cn3c4c(cccc24)CCC3)[C@@H]1c1c[nH]c2ccccc12 [Tivantinib] | 5.4 | 5.9 | 14 | 4 | 6.4 | 3.8
COc1cc2nccc(Oc3ccc(NC(=O)Nc4cc(C)on4)c(Cl)c3)c2cc1OC [Tivozanib] | 5.7 | 3.8 | 0.4 | 2.8 | 8.9 | 4.9
C[C@@H]1CCN(C(=O)CC#N)C[C@@H]1N(C)c1ncnc2[nH]ccc12 [Tofacitinib] | 0 | 0 | 12.2 | 0 | 0 | 0
CC[C@@]1(O)C(=O)OCc2c1cc1n(c2=O)Cc2cc3c(CN(C)C)c(O)ccc3nc2-1 [Topotecan] | 20.9 | 25.7 | 28 | 22.2 | 23.1 | 30.4
CN(C)CCOc1ccc(/C(=C(/CCCl)c2ccccc2)c2ccccc2)cc1 [Toremifene] | 2.1 | 0.8 | 2.3 | 3.2 | 0 | 3.5
CC(C)C[C@@H](C(=O)N[C@H](C(=O)OC1CCCC1)c1ccccc1)[C@H](O)C(=O)NO [Tosedostat] | 2 | 1.3 | 2.1 | 14.5 | 11.4 | 6.5
Cc1cc(Nc2cc(N3CCN(C)CC3)nc(Sc3ccc(NC(=O)C4CC4)cc3)n2)n[nH]1 [Tozasertib] | 22 | 19.4 | 23.7 | 20.1 | 19.5 | 20.9
CC(=O)Nc1cccc(-n2c(=O)n(C3CC3)c(=O)c3c(Nc4ccc(I)cc4F)n(C)c(=O)c(C)c32)c1 [Trametinib] | 9 | 7.4 | 7.6 | 10.7 | 3.9 | 13.5
CC1=C(/C=C/C(C)=C/C=C/C(C)=C/C(=O)O)C(C)(C)CCC1 [Tretinoin] | 0 | 0 | 8.2 | 0 | 0 | 0
NC(=S)N/N=C/c1ncccc1N [Triapine] | 4.5 | 6.3 | 8.2 | 5.2 | 9.3 | 8.7
O=c1[nH]c(=O)n([C@H]2C[C@H](O)[C@@H](CO)O2)cc1C(F)(F)F [Trifluridine] | 5.4 | 9.2 | 7.4 | 5.2 | 2.7 | 9
O=C(CCCCCCC(=O)Nc1ccc([C@H]2O[C@@H](CSc3nc(-c4ccccc4)c(-c4ccccc4)o3)C[C@@H](c3ccc(CO)cc3)O2)cc1)NO [Tubacin] | 1.1 | 6.7 | 7 | 5 | 1.5 | 6.2
CN1CCc2c(c3ccccc3n2Cc2ccc(C(=O)NO)cc2)C1 [Tubastatin A] | 0 | 3.3 | 4.6 | 0 | 4.3 | 5.2
Cc1cc(Nc2ncnc3ccc(NC4=NC(C)(C)CO4)cc23)ccc1Oc1ccn2ncnc2c1 [Tucatinib] | 2.9 | 0 | 2.5 | 0 | 0 | 0
Nc1cc(F)ccc1NC(=O)c1ccc(CNC(=O)/C=C/c2cccnc2)cc1 [Tucidinostat] | 7.6 | 11.2 | 9.7 | 8 | 4.4 | 11.8
CN[C@@H]1C[C@H]2O[C@@](C)([C@@H]1OC)n1c3ccccc3c3c4c(c5c6ccccc6n2c5c31)C(=O)N[C@H]4O [UCN-01] | 17 | 17.3 | 22.7 | 19.6 | 14.3 | 17.7
COC(=O)c1ccc2c(c1)[nH]c1ncnc(NCCCN3CCCCC3)c12 [UM729] | 1.1 | 0 | 4.1 | 6.9 | 1.1 | 3.5
COc1cc2c(NC3CCN(C(C)C)CC3)nc(C3CCCCC3)nc2cc1OCCCN1CCCC1 [UNC0638] | 4.4 | 1.8 | 0 | 7.1 | 0 | 0.1
COc1cc2c(NC3CCN(C(C)C)CC3)nc(N3CCC(F)(F)CC3)nc2cc1OCCCN1CCCC1 [UNC0642] | 1.5 | 0.7 | 0.1 | 8 | 0 | 2.2
O=C(c1ccc(C(=O)N2CCC(N3CCCC3)CC2)c(Nc2ccccc2)c1)N1CCC(N2CCCC2)CC1 [UNC1215] | 0 | 0 | 0 | 0 | 0 | 0
CCCCNc1ncc(C(=O)NCc2ccc(-n3ccnc3)cc2)c(NC2CCC(O)CC2)n1 (stereo unspecified) [UNC2881] | 2.4 | 3 | 0.4 | 0.2 | 1.1 | 0
NC(=O)c1cccc(-c2cccc(OC(=O)NC3CCCCC3)c2)c1 [URB597] | 0 | 0 | 0 | 0 | 0 | 0
CC(C)Nc1cc(-c2c[nH]c(C(=O)N[C@H](CO)c3cccc(Cl)c3)c2)c(Cl)cn1 [Ulixertinib] | 9.7 | 9.6 | 12.2 | 8.8 | 13.9 | 11
